What was measured:
[1] = tested on: CHIKV (SGP11) infection of HEK 293T cells; assay: Affinity depletion of anti-E2EP3 antibodies, read by in vitro neutralization assay; assay type: cell-based, Chikungunya virus; conditions: plasma 1:500; about 20% with non-depleted plasma
Procedure: (§1) Neutralizing activity of CHIKV-infected patient samples were test in triplicates and were analyzed by immunofluorescence-based cell infection assay in HEK 293T cells, using Singapore strain CHIKV (SGP11). CHIKV were mixed at MOI 10 with diluted (1:100, 500 or 1,000) heat-inactivated human plasma and incubated for 2 hours at about 37° C. with gentle agitation (350 rpm). Virus-antibody mixtures were then added to HEK 293T cells seeded in 96-well plates and incubated for 1.5 hours at about 37° C. Virus inoculums (medium) were removed, and cells were replenished with DMEM medium supplied with 5% FBS and incubated for about 6 hours at about 37° C. before fixation with 4% paraformaldehyde followed by immunofluorescence quantification using the Cellomics ArrayScan V. The Cellomics ArrayScan. V was used as a complementary means of assessing neutralization capabilities of patients' plasma (same set-up as mentioned above), but involves an assessment endpoint at 6 hours post-infection (pi) to capture possible early protective responses against virus infection. Percentage infectivity was detected with High Content Screening and was calculated according to the equation: % Infectivity=100×(% responder from sero-neutralization group/% responder from virus infection group).
(§2) For affinity depletion of human anti-E2EP3 antibodies, synthetic biotinylated E2EP3 peptide (EMC microcollections GmbH) was added at 450 ng/well to streptavidin-coated plates (Pierce) and incubated at room temperature for about 1 hour in PBS containing 0.1% Tween-20 (0.1% PBST). Human plasma samples were added and incubated for about 25 minutes at room temperature for absorption. The unbound portion was collected after 21 rounds of absorption. ELISA analysis was performed to verify the levels of the antibodies during affinity depletion.
In FIG. 9(d), in vitro neutralizing activity of anti-E2EP3 antibodies against CHIKV-infected patients' plasma samples was observed. […] Outputs were expressed as percentage control infection. […]

[2] = tested on: E2EP3-specific IgG3 antibodies in pooled patients' plasma; assay: Affinity depletion of anti-E2EP3 antibodies, read by E2EP3 specific peptide-based ELISA; assay type: binding, human; conditions: pooled plasma median 10 days pio, relative to non-depleted samples
Procedure: as §2
Plasma samples (Median 10 days pio) were incubated with E2EP3 (K3, N5, K10), E2EP3 with double alanine substitution at lysine residues (K3A, N5, K10A) or triple alanine substitution at lysine and asparagine (K3A, N5A, K10A) peptides. E2EP3 specific peptide-based ELISA was performed to measure the depletion efficiency. Outputs were expressed as percentage control IgG3 titer from non-depleted samples. Data were presented as mean±SD. Examples were performed in triplicates.

[3] = tested on: anti-CHIKV IgG3 antibodies in pooled patients' plasma; assay: Affinity depletion of anti-E2EP3 antibodies, read by virion-based ELISA; assay type: binding, human; conditions: pooled plasma median 10 days pio, whole virus ELISA, relative to non-depleted samples
Procedure: […]; 50 μl/well). Wells were blocked with PBST-milk (PBS, 0.05% Tween 20, 5% non-fat milk) and plates were incubated for about 1.5 hours at about 37° C. Plasma samples were then diluted 1:500, 1:2000 in PBST-milk and incubated 1 hour at about 37° C. HRP-conjugated mouse anti-human IgG, IgG1, IgG2, IgG3, IgG4 and IgM (Molecular Probes) were used to detect human antibodies bound to virus-coated wells. Reactions were developed using TMB substrate (Sigma-Aldrich) and stopped with stopping reagent (Sigma-Aldrich). The absorbance was measured at 450 nm. Healthy donor samples were used as controls. ELISA determinations were done in duplicates and the values plotted as means±standard error means (SEM).
as §2
In FIG. 9(c), depleted samples as described in FIG. 9(b) were subjected to anti-CHIKV IgG3 antibodies detection. Virion-based ELISA was performed as described to measure the depletion efficiency. Outputs were expressed as percentage control IgG3 titer from non-depleted samples. Data were presented as mean±SD. Examples were performed in triplicates.

CHIKV infection in vitro = assay: In vitro neutralizing activity of E2EP3-vaccinated mouse sera; assay type: cell-based, Chikungunya virus; conditions: sera 27 days post-vaccination, dilution 1:100
Procedure: as §1, with “V was used as a complementary means of assessing neutralization capabilities of patients' plasma (same set-up as mentioned above), but involves an assessment endpoint at 6 hours post-infection (pi) to capture possible early protective responses against virus infection.” left out
Lyophilized KLH-E2EP3 peptide was dissolved in DMSO (Sigma-Aldrich) to a working concentration of 5 mg/mL. […] Viremia and degree of inflammation were monitored. […] Hind footpads of mice were measured daily using a vernier calliper from day 0 to day 14 post-infection. Measurements were done for the height (thickness) and the breadth of the foot and quantified as [height×breadth]. […]

CHIKV (SGP11) [4] = assay: CHIKV challenge of vaccinated mice: footpad swelling (inflammation); assay type: in vivo; conditions: day 0 to day 14 post-challenge
Procedure: (§3) Lyophilized KLH-E2EP3 peptide was dissolved in DMSO (Sigma-Aldrich) to a working concentration of 5 mg/mL. Three-weeks old, female, C57BL/6J (sample size, n=7) were vaccinated subcutaneously in the abdominal flank with 100 μg of KLH-E2EP3 peptide prepared in 100 μl emulsion with 50% Complete Freund's Adjuvant (CFA) (Sigma-Aldrich) in PBS. Vaccinated mice were further boosted another two times at day 14 and day 21 with 50 μg of the peptide prepared in Incomplete Freund's Adjuvant (IFA) (Sigma-Aldrich). Control mice (n=7) were vaccinated with PBS/CFA and PBS/IFA on first vaccination and subsequent booster shots respectively. […] Viremia and degree of inflammation were monitored. […] Hind footpads of mice were measured daily using a vernier calliper from day 0 to day 14 post-infection. Measurements were done for the height (thickness) and the breadth of the foot and quantified as [height×breadth]. Degree of inflammation was expressed as relative increase in footpad size as compared to pre-infection with the following formula: [(day x−day 0)÷day 0] where x is the footpad measurements for each respective day post-infection.
(§4) Mice were immunized with E2EP3 peptide complex to KLH or PBS Control emulsified with Complete Freund's Adjuvant (CFA) subcutaneously, and were boosted two more times with Incomplete Freund's Adjuvant (IFA). […] Outputs were expressed as percentage infection relative to PBS Control. […]

[5] = tested on: CHIKV infection of HEK 293T cells; assay: Peptide blocking assay with NHP plasma followed by in vitro neutralization assay; assay type: cell-based, Chikungunya virus; conditions: NHP plasma dilution series 1:100 to 1:3200, compared to untreated plasma
[6] = tested on: CHIKV (SGP11) infection of HEK 293T cells; assay: Peptide blocking assay with human plasma followed by sero-neutralization assay; assay type: cell-based, Chikungunya virus; conditions: patients' plasma pools 1:500; 20% without peptide
Procedure: as §1, with “group). […]” for “group).”
Outputs were expressed as percentage control infection. […]

CHIKV (SGP11) [7] = assay: CHIKV challenge of vaccinated mice: viremia by virus plaque assay; assay type: in vivo; conditions: 2 days post-challenge, challenge 30 days post-vaccination with 10^6 PFU s.c.; PBS control 4,500
Procedure: as §3, §4

C57BL/6J mice = assay: KLH-E2EP3 vaccination of mice: E2EP3 specific peptide-based ELISA; assay type: in vivo; conditions: KLH-linked E2EP3 with CFA/IFA
Procedure: as §3
Importantly, the sera obtained at 27 days post-vaccination were able to neutralize CHIKV-infection in vitro. In FIGS. 17(a) and 17(b), mouse anti-E2EP3 IgG antibodies were detected after the second and third vaccination. All outputs were expressed as mean±SD. […]

Row | Substance | virus infectivity (percentage control infection) with peptide-depleted plasma [1] | E2EP3-specific IgG3 depleted from patients' plasma by surface-bound peptide [2] [%] | reduction of total anti-CHIKV IgG3 titer after depletion with peptide [3] [%] | reduction of infectivity compared to the PBS-vaccinated control group (CHIKV infection in vitro) | maximal footpad swelling of PBS-vaccinated group relative to E2EP3-vaccinated group (CHIKV (SGP11) [4]) | effect of soluble peptide on neutralization by CHIKV-infected NHP plasma [5] | CHIKV infection (percentage control infection) after blocking with soluble E2EP3 peptide [6] [%] | CHIKV viremia (CHIKV (SGP11) [7]) | anti-E2EP3 IgG titer (C57BL/6J mice; 19 days post-vaccination, after 1st boost) | anti-E2EP3 IgG titer (C57BL/6J mice; 27 days post-vaccination, after 2nd boost)
1 | K3A/N5A/K10A (STADAFNVYAATRPYLAHC) | only a gradual decrease of the neutralizing efficacy | 15 | 20 | – | – | – | – | – | – | –
2 | K3A/K10A (STADNFNVYAATRPYLAHC) | only a gradual decrease of the neutralizing efficacy | 30 | 40 | – | – | – | – | – | – | –
3 | STKDNFNVYKATRPYLAHC [E2EP3] | more than 50% | – | ~80 | approximately 40% | more than twice | abrogated the inhibitory effect of monkey plasma samples significantly | ~40 | 2,000 pfu/mL | Significant anti-E2EP3 titer | further increased

Source: patent US20140050754A1, “IMMUNOGENIC CHIKUNGUNYA VIRUS PEPTIDES” (priority 2010, published 2014)
